For 13 compounds, EC50 results are on record in patent US20120070411A1, “SUBSTITUTED NUCLEOTIDE ANALOGS” (Alios BioPharma, Inc., priority 2010, published 2012).

Some results are limits rather than exact numbers.

Usually EC50 stands for the midpoint of the concentration-response curve.

This experiment concerns Huh-7 cells containing the self-replicating, subgenomic HCV replicon. The experiment can be described thus: HCV replicon assay (luciferase reporter, 72 h). It counts as cell-based. The following applies: Hepatitis C virus, Huh-7, 72 h, read-out: HCV Replicon Activity (EC50). As for the experimental part: Huh-7 cells containing the self-replicating, subgenomic HCV replicon with a stable luciferase (LUC) reporter were cultured in Dulbecco's modified Eagle's medium (DMEM) containing 2 mM L-glutamine and supplemented with 10% heat-inactivated fetal bovine serum (FBS), 1% penicillin-streptomyocin, 1% nonessential amino acids, and 0.5 mg/ml G418.
On the first day, 5,000 HCV replicon cells were plated per well in a 96-well plate. On the following day, test compounds were solubilized in 100% DMSO to 100× the desired final testing concentration. Each compound was then serially diluted (1:3) up to 9 different concentrations. Compounds in 100% DMSO are reduced to 10% DMSO by diluting 1:10 in cell culture media. The compounds were diluted to 10% DMSO with cell culture media, which were used to dose the HCV replicon cells in 96-well format. The final DMSO concentration was 1%. The HCV replicon cells were incubated at 37° C. for 72 hours. At 72 hours, cells were processed when the cells are still subconfluent. Compounds that reduce the LUC signal are determined by Bright-Glo Luciferase Assay (Promega, Madison, Wis.). % Inhibition was determined for each compound concentration in relation to the control cells (untreated HCV replicon) to calculate the EC50.
As to `CC(C)OC(=O)[C@H](C)NP(=O)(Oc1ccccc1)O[C@@H](C)[C@H]1O[C@@H](n2cnc3c(N)ncnc32)[C@H](O)[C@@H]1O` (stereo partly drawn) [A8, 5′(S)—C-methyladenosine 5′-[phenyl(isopropoxy-L-alaninyl)]phosphate], the EC50 was less than 1000 nM.
Turning to `CC(C)OC(=O)[C@H](C)NP(=O)(Oc1ccccc1)O[C@@H](C)[C@H]1O[C@@H](n2cnc3c(N)ncnc32)[C@@H]2OC(=O)O[C@@H]21` (stereo partly drawn) [A9, 2′,3′-carbonyl-5′(S)—C-methyladenosine 5′-[phenyl(isopropoxy-L-alaninyl)]phosphate], the EC50 was less than 1000 nM.
As for `C[C@H](NP(=O)(Oc1ccccc1)O[C@@H](C)[C@H]1O[C@@H](n2cnc3c(N)ncnc32)[C@H](O)[C@@H]1O)C(=O)OC1CCCCC1` (stereo partly drawn) [A10, 5′(S)—C-methyladenosine 5′-[phenyl(cyclohexoxy-L-alaninyl)]phosphate], the EC50 is less than 1000 nM.
For the compound `C[C@H](N[P@@](=O)(Oc1ccccc1)O[C@@H](C)[C@H]1O[C@@H](n2cnc3c(N)ncnc32)[C@H](O)[C@@H]1O)C(=O)OC1CCCCC1` [A10a, 5′(S)—C-methyladenosine 5′(S)-[phenyl(cyclohexoxy-L-alaninyl)]phosphate], the EC50 was less than 1000 nM.
For the compound `C[C@H](N[P@](=O)(Oc1ccccc1)O[C@@H](C)[C@H]1O[C@@H](n2cnc3c(N)ncnc32)[C@H](O)[C@@H]1O)C(=O)OC1CCCCC1` [A10b, 5′(S)—C-methyladenosine 5′(R)-[phenyl(cyclohexoxy-L-alaninyl)]phosphate], the EC50 was less than 1000 nM.
For `C[C@H](NP(=O)(Oc1ccccc1)O[C@@H](C)[C@H]1O[C@@H](n2cnc3c(N)ncnc32)[C@H](O)[C@@H]1O)C(=O)OCC(C)(C)C` (stereo partly drawn) [A11, 5′(S)—C-methyladenosine 5′-[phenyl(neopentoxy-L-alaninyl)]phosphate], the EC50 is less than 1000 nM.
`C[C@H](NP(=O)(Oc1ccccc1)O[C@@H](C)[C@H]1O[C@@H](n2cnc3c(N)ncnc32)[C@@H]2OC(=O)O[C@@H]21)C(=O)OCC(C)(C)C` (stereo partly drawn) [A12, 2′,3′-O-carbonyl-5′(S)—C-methyladenosine 5′-[phenyl(neopentoxy-L-alaninyl)]phosphate]: the EC50 is less than 1000 nM.
Take `C[C@H](NP(=O)(Oc1ccccc1)O[C@@H](C)[C@H]1O[C@@H](n2cnc3c(N)ncnc32)[C@@H]2OC(=O)O[C@@H]21)C(=O)OC1CCCCC1` (stereo partly drawn) [A13, 2′,3′-O-carbonyl-5′(S)—C-methyladenosine 5′-[phenyl(cyclohexoxy-L-alaninyl)]phosphate]: the half-maximal effective concentration (EC50) is less than 1000 nM.
As to `CCC(=O)O[C@H]1[C@@H](OC(=O)CC)[C@H](n2cnc3c(N)ncnc32)O[C@@H]1[C@H](C)OP(=O)(N[C@@H](C)C(=O)OC(C)C)Oc1ccccc1` (stereo partly drawn) [A14, 2′,3′-O-dipropionyl-5′(S)—C-methyladenosine 5′-[phenyl(isopropoxy-L-alaninyl)]phosphate], the EC50 is less than 1000 nM.
Take `COC(=O)[C@H](C)NP(=O)(Oc1ccccc1)O[C@@H](C)[C@H]1O[C@@H](n2cnc3c(N)ncnc32)[C@H](O)[C@@H]1O` (stereo partly drawn) [A15, 5′(S)—C-methyladenosine 5′-[phenyl(methoxy-L-alaninyl)]phosphate]: the EC50 is less than 30000 nM.
The same measure for `COC(=O)[C@H](C)NP(=O)(Oc1ccccc1)O[C@@H](C)[C@H]1O[C@@H](n2cnc3c(N)ncnc32)[C@@H]2OC(=O)O[C@@H]21` (stereo partly drawn) [A16, 2′,3′-O-carbonyl-5′(S)—C-methyladenosine 5′-[phenyl(methoxy-L-alaninyl)]phosphate]: less than 30000 nM; for `CCC(=O)O[C@H]1[C@@H](OC(=O)CC)[C@H](n2cnc3c(N)ncnc32)O[C@@H]1[C@H](C)OP(=O)(N[C@@H](C)C(=O)OCC(C)(C)C)Oc1ccccc1` (stereo partly drawn) [A17, 2′,3′-O-dipropionyl-5′(S)—C-methyladenosine 5′-[phenyl(neopentoxy-L-alaninyl)]phosphate]: less than 1000 nM.
Under `CCOC(=O)[C@H](C)NP(=O)(Oc1cccc2ccccc12)O[C@@H](C)[C@H]1O[C@@H](n2cnc3c(N)ncnc32)[C@H](O)[C@@H]1O` (stereo partly drawn) [A19, 5′(S)—C-methyladenosine 5′-[1-naphthyl(ethoxy-L-alaninyl)]phosphate] stands less than 1000 nM.
